≈ marks a conversion by molar mass, not a printed value. Like-named read-outs stand apart in the source and are kept apart here.
Experiments:
[1] = system: Haemophilus influenzae Wy21; assay: MIC against human bacteria in vitro; type: cell-based
Strep. uberis SPU1 = assay: MIC against veterinary bacteria in vitro; conditions: Streptococcus uberis, SPU1, 18 h
Description: (§1) The activity of the compounds of the Examples against various veterinarily important bacteria, was assayed in vitro using two-fold serial dilutions in Diagnostic Sensitivity Test Agar inoculated with 10^4 organisms.

S. dublin S7 = assay: MIC against veterinary bacteria in vitro; conditions: Salmonella enterica, S7, 18 h
Description: as §1

M. hyorhinis ATCC 25021 = assay: MIC against mycoplasma in vitro; type: cell-based; conditions: Mesomycoplasma hyorhinis, ATCC25021, 144 h; M. hyorhinis ATCC 25021; 6 days, 37° C.; read-out: MIC
Staph. aureus W2827 = assay: MIC against human bacteria in vitro; type: cell-based; conditions: Staphylococcus aureus
[2] = system: M. suipneumoniae J2206/183^b; assay: MIC against mycoplasma in vitro; type: cell-based; conditions: Mesomycoplasma hyopneumoniae, 144 h
Bacillus subtilis 6633 = assay: MIC against human bacteria in vitro; type: cell-based
[3] = system: M. bovigenitalium ATCC 14173; assay: MIC against mycoplasma in vitro; type: cell-based; conditions: 144 h
[4] = system: Strep. pyogenes R80/421-A; assay: MIC against human bacteria in vitro; type: cell-based; conditions: Streptococcus pyogenes; Strep. pyogenes R80/421-A; 5% chocolated horse blood agar, 18 hours; read-out: MIC
K. aerogenes A = assay: MIC against human bacteria in vitro; type: cell-based; conditions: Klebsiella aerogenes
E. coli ESS = assay: MIC against human bacteria in vitro; type: cell-based; conditions: Escherichia coli
M. suipneumoniae TAM 6N = assay: MIC against mycoplasma in vitro; type: cell-based; conditions: Mesomycoplasma hyopneumoniae, TAM6N, 144 h
M. suipneumoniae JF 435 = assay: MIC against mycoplasma in vitro; type: cell-based; conditions: Mesomycoplasma hyopneumoniae, JF435, 144 h
[5] = system: M. hyosynoviae ATCC 25591; assay: MIC against mycoplasma in vitro; type: cell-based; conditions: 144 h
[6] = system: Ps. aeruginosa NCTC 10662; assay: MIC against human bacteria in vitro; type: cell-based; conditions: Pseudomonas aeruginosa
[7] = system: Corynebacterium xerosis 9755; assay: MIC against human bacteria in vitro; type: cell-based
Strep. agalactiae SPA1 = assay: MIC against veterinary bacteria in vitro; conditions: Streptococcus agalactiae, SPA1, 18 h
Description: as §1

[8] = system: Strep. suis (group D) SPS11; assay: MIC against veterinary bacteria in vitro; conditions: Streptococcus suis, 18 h
Description: as §1

[9] = system: Neisseria catarrhalis 1502; assay: MIC against human bacteria in vitro; type: cell-based; conditions: Neisseria catarrhalis 1502; 5% chocolated horse blood agar, 18 hours; read-out: MIC
Staph. aureus Russell = assay: MIC against human bacteria in vitro; type: cell-based; conditions: Staphylococcus aureus
P. mirabilis 889 = assay: MIC against human bacteria in vitro; type: cell-based
M. dispar NCTC 10125 = assay: MIC against mycoplasma in vitro; type: cell-based; conditions: 144 h
M. suipneumoniae MS 16 = assay: MIC against mycoplasma in vitro; type: cell-based; conditions: Mesomycoplasma hyopneumoniae, MS16, 144 h
[10] = system: Staph. aureus B4 (pen. resistant); assay: MIC against veterinary bacteria in vitro; conditions: Staphylococcus aureus, 18 h
Description: as §1

Strep. faecalis I = assay: MIC against human bacteria in vitro; type: cell-based; conditions: Enterococcus faecalis
Past. multocida PA1 = assay: MIC against veterinary bacteria in vitro; conditions: Pasteurella multocida, PA1, 18 h
Description: as §1

M. suipneumoniae Str. 11 = assay: MIC against mycoplasma in vitro; type: cell-based; conditions: Mesomycoplasma hyopneumoniae
Staph. aureus Oxford = assay: MIC against human bacteria in vitro; type: cell-based; conditions: Staphylococcus aureus
Strep. agalactiae 2788-B = assay: MIC against human bacteria in vitro; type: cell-based; conditions: Streptococcus agalactiae; Strep. agalactiae 2788-B; 5% chocolated horse blood agar, 18 hours; read-out: MIC
Strep. spp. 64/848-C = assay: MIC against human bacteria in vitro; type: cell-based
[11] = system: Corynebacterium pyogenes CY1; assay: MIC against veterinary bacteria in vitro; conditions: CY1, 18 h
Description: as §1

Sarcina lutea 8340 = assay: MIC against human bacteria in vitro; type: cell-based
[12] = system: Pasteurella multocida 1633; assay: MIC against human bacteria in vitro; type: cell-based
[13] = system: M. suipneumoniae ATCC 25095; assay: MIC against mycoplasma in vitro; type: cell-based; conditions: Mesomycoplasma hyopneumoniae, ATCC25095, 144 h
M. suipneumoniae NB12 = assay: MIC against mycoplasma in vitro; type: cell-based; conditions: Mesomycoplasma hyopneumoniae

## CSc1ccc(-c2cnc(/C=C(\C)C[C@@H]3OC[C@H](C[C@@H]4O[C@H]4[C@@H](C)[C@H](C)O)[C@@H](O)[C@H]3O)o2)cc1 [Example 9, 5-p-methylthiophenyl-2-(1-normon-2-yl)oxazole A]
[1]; Haemophilus influenzae, WY21, 18 h
  MIC: 50 µg/mL (≈ 102 µM)
Strep. uberis SPU1
  MIC: 0.16 µg/mL (≈ 0.327 µM)
S. dublin S7
  MIC: > 80 µg/mL
M. hyorhinis ATCC 25021
  MIC: 0.5 µg/mL (≈ 1.02 µM)
Staph. aureus W2827; W2827, 18 h
  MIC: 5 µg/mL (≈ 10.2 µM)
[2]
  MIC: 0.5 µg/mL (≈ 1.02 µM)
Bacillus subtilis 6633; Bacillus subtilis, 6633, 18 h
  MIC: 1 µg/mL (≈ 2.04 µM)
[3]
  MIC: 0.1 µg/mL (≈ 0.204 µM)
[4]
  MIC: 10 µg/mL (≈ 20.4 µM)
K. aerogenes A; 18 h
  MIC: > 100 µg/mL
E. coli ESS; 18 h
  MIC: 5 µg/mL (≈ 10.2 µM)
M. suipneumoniae TAM 6N
  MIC: 0.5 µg/mL (≈ 1.02 µM)
M. suipneumoniae JF 435
  MIC: 0.5 µg/mL (≈ 1.02 µM)
[5]
  MIC: 0.5 µg/mL (≈ 1.02 µM)
[6]; NCTC10662, 18 h
  MIC: > 100 µg/mL
[7]; Corynebacterium xerosis, 9755, 18 h
  MIC: > 100 µg/mL
Strep. agalactiae SPA1
  MIC: 10 µg/mL (≈ 20.4 µM)
[8]
  MIC: 10 µg/mL (≈ 20.4 µM)
[9]
  MIC: 10 µg/mL (≈ 20.4 µM)
Staph. aureus Russell; 18 h
  MIC: 5 µg/mL (≈ 10.2 µM)
P. mirabilis 889; Proteus mirabilis, 889, 18 h
  MIC: > 100 µg/mL
M. dispar NCTC 10125
  MIC: 0.1 µg/mL (≈ 0.204 µM)
M. suipneumoniae MS 16
  MIC: 0.5 µg/mL (≈ 1.02 µM)
[10]
  MIC: 1.25 µg/mL (≈ 2.55 µM)
Strep. faecalis I; 18 h
  MIC: > 100 µg/mL
Past. multocida PA1
  MIC: 20 µg/mL (≈ 40.8 µM)
M. suipneumoniae Str. 11; STR.11, 144 h
  MIC: 0.5 µg/mL (≈ 1.02 µM)
Staph. aureus Oxford; 18 h
  MIC: 2.5 µg/mL (≈ 5.11 µM)
Strep. agalactiae 2788-B
  MIC: 10 µg/mL (≈ 20.4 µM)
Strep. spp. 64/848-C; 18 h
  MIC: 5 µg/mL (≈ 10.2 µM)
[11]
  MIC: 80 µg/mL (≈ 163 µM)
Sarcina lutea 8340; Micrococcus luteus, 8340, 18 h
  MIC: > 100 µg/mL
[12]; Pasteurella multocida, 1633, 18 h
  MIC: 5 µg/mL (≈ 10.2 µM)
[13]
  MIC: 0.5 µg/mL (≈ 1.02 µM)
M. suipneumoniae NB12; NB12, 144 h
  MIC: 0.5 µg/mL (≈ 1.02 µM)

## C/C(=C\c1ncc(-c2ccc([S+](C)[O-])cc2)o1)C[C@@H]1OC[C@H](C[C@@H]2O[C@H]2[C@@H](C)[C@H](C)O)[C@@H](O)[C@H]1O (stereo partly shown) [Example 11, 5-p-Methylsulphinylphenyl-2-(1-normon-2-yl) oxazole A]
[1]; Haemophilus influenzae Wy21, 5% chocolated horse blood agar, 18 hours, read-out: MIC
  MIC: 4 µg/mL (≈ 7.91 µM)
Strep. uberis SPU1
  MIC: 0.312 µg/mL (≈ 0.617 µM)
S. dublin S7
  MIC: > 80 µg/mL
M. hyorhinis ATCC 25021
  MIC: 0.1 µg/mL (≈ 0.198 µM)
Staph. aureus W2827; Staph. aureus W2827, 5% chocolated horse blood agar, 18 hours, read-out: MIC
  MIC: 16 µg/mL (≈ 31.6 µM)
[2]; M. suipneumoniae J2206/183^b, 6 days, 37° C., read-out: MIC
  MIC: 0.25 µg/mL (≈ 0.494 µM)
Bacillus subtilis 6633; Bacillus subtilis 6633, 5% chocolated horse blood agar, 18 hours, read-out: MIC
  MIC: 4 µg/mL (≈ 7.91 µM)
[3]; M. bovigenitalium ATCC 14173, 6 days, 37° C., read-out: MIC
  MIC: 0.1 µg/mL (≈ 0.198 µM)
[4]
  MIC: 4 µg/mL (≈ 7.91 µM)
K. aerogenes A; K. aerogenes A, 5% chocolated horse blood agar, 18 hours, read-out: MIC
  MIC: > 128 µg/mL
E. coli ESS; E. coli ESS, 5% chocolated horse blood agar, 18 hours, read-out: MIC
  MIC: 128 µg/mL (≈ 253 µM)
M. suipneumoniae TAM 6N; M. suipneumoniae TAM 6N, 6 days, 37° C., read-out: MIC
  MIC: 0.5 µg/mL (≈ 0.989 µM)
M. suipneumoniae JF 435; M. suipneumoniae JF 435, 6 days, 37° C., read-out: MIC
  MIC: 0.25 µg/mL (≈ 0.494 µM)
[5]; M. hyosynoviae ATCC 25591, 6 days, 37° C., read-out: MIC
  MIC: 0.25 µg/mL (≈ 0.494 µM)
[6]; NCTC10662, Ps. aeruginosa NCTC 10662, 5% chocolated horse blood agar, 18 hours, read-out: MIC
  MIC: > 128 µg/mL
[7]; Corynebacterium xerosis 9755, 5% chocolated horse blood agar, 18 hours, read-out: MIC
  MIC: > 128 µg/mL
Strep. agalactiae SPA1
  MIC: 2.5 µg/mL (≈ 4.94 µM)
[8]
  MIC: 5 µg/mL (≈ 9.89 µM)
[9]
  MIC: 8 µg/mL (≈ 15.8 µM)
Staph. aureus Russell; Staph. aureus Russell, 5% chocolated horse blood agar, 18 hours, read-out: MIC
  MIC: 16 µg/mL (≈ 31.6 µM)
P. mirabilis 889; Proteus mirabilis, P. mirabilis 889, 5% chocolated horse blood agar, 18 hours, read-out: MIC
  MIC: > 128 µg/mL
M. dispar NCTC 10125; M. dispar NCTC 10125, 6 days, 37° C., read-out: MIC
  MIC: 0.1 µg/mL (≈ 0.198 µM)
M. suipneumoniae MS 16; M. suipneumoniae MS 16, 6 days, 37° C., read-out: MIC
  MIC: 0.1 µg/mL (≈ 0.198 µM)
[10]
  MIC: 5 µg/mL (≈ 9.89 µM)
Strep. faecalis I; Strep. faecalis I, 5% chocolated horse blood agar, 18 hours, read-out: MIC
  MIC: > 128 µg/mL
Past. multocida PA1
  MIC: 5 µg/mL (≈ 9.89 µM)
M. suipneumoniae Str. 11; 144 h, M. suipneumoniae Str. 11, 6 days, 37° C., read-out: MIC
  MIC: 0.1 µg/mL (≈ 0.198 µM)
Staph. aureus Oxford; Staph. aureus Oxford, 5% chocolated horse blood agar, 18 hours, read-out: MIC
  MIC: 16 µg/mL (≈ 31.6 µM)
Strep. agalactiae 2788-B
  MIC: 4 µg/mL (≈ 7.91 µM)
Strep. spp. 64/848-C; Strep. spp. 64/848-C, 5% chocolated horse blood agar, 18 hours, read-out: MIC
  MIC: 2 µg/mL (≈ 3.96 µM)
[11]
  MIC: > 80 µg/mL
Sarcina lutea 8340; Micrococcus luteus, Sarcina lutea 8340, 5% chocolated horse blood agar, 18 hours, read-out: MIC
  MIC: > 128 µg/mL
[12]; Pasteurella multocida 1633, 5% chocolated horse blood agar, 18 hours, read-out: MIC
  MIC: 8 µg/mL (≈ 15.8 µM)
[13]; M. suipneumoniae ATCC 25095, 6 days, 37° C., read-out: MIC
  MIC: 0.25 µg/mL (≈ 0.494 µM)
M. suipneumoniae NB12; 144 h, M. suipneumoniae NB12, Friis broth, 0.9% agarose, 6 days, 37° C., read-out: MIC
  MIC: 0.1 µg/mL (≈ 0.198 µM)
